The experiment addresses S. aureus GyrB ATPase (Staphylococcus aureus, UniProt P0A0K8). Briefly: S. aureus (SAU) GyrB ATPase inhibition, malachite green phosphate detection (E. coli GyrA + S. aureus GyrB). The experiment is classed as biochemical. As to conditions: compound concentration of 1.0 μM unless otherwise noted; average value where assay was carried out more than once; read-out: S. aureus (SAU) GyrB ATPase % Inhibition. The method, boiled down:
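E. coli GyrA and S. aureus GyrB (1.25 nM each) with 500 μM ATP and 5 μg/ml sheared salmon sperm DNA in 50 mM Hepes pH 7.5, 8.0 mM MgCl2. Released phosphate detected with ammonium molybdate/malachite green at 650 nm; 2% DMSO as 0% and 2 μM novobiocin as 100% inhibition; IC50 from 10 concentrations.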
Chain of S. aureus GyrB ATPase (P0A0K8 whole entry): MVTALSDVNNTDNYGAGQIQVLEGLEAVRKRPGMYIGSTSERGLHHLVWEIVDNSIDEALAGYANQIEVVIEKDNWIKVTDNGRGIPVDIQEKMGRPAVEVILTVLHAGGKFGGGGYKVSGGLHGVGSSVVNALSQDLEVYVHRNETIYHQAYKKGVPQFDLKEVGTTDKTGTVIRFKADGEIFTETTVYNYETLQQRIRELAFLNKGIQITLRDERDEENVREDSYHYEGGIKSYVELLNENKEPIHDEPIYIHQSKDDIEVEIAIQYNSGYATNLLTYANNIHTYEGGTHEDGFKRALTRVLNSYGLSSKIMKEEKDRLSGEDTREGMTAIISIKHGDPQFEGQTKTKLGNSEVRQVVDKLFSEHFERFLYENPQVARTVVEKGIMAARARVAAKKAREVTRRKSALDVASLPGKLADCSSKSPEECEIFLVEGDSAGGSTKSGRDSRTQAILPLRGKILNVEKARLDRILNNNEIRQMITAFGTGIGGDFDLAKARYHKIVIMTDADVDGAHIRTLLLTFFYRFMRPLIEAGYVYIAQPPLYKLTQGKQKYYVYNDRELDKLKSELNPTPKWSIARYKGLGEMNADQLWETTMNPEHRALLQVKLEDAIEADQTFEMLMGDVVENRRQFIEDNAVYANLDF
Chain of S. aureus GyrB ATPase (P0AES4 whole entry, further chain): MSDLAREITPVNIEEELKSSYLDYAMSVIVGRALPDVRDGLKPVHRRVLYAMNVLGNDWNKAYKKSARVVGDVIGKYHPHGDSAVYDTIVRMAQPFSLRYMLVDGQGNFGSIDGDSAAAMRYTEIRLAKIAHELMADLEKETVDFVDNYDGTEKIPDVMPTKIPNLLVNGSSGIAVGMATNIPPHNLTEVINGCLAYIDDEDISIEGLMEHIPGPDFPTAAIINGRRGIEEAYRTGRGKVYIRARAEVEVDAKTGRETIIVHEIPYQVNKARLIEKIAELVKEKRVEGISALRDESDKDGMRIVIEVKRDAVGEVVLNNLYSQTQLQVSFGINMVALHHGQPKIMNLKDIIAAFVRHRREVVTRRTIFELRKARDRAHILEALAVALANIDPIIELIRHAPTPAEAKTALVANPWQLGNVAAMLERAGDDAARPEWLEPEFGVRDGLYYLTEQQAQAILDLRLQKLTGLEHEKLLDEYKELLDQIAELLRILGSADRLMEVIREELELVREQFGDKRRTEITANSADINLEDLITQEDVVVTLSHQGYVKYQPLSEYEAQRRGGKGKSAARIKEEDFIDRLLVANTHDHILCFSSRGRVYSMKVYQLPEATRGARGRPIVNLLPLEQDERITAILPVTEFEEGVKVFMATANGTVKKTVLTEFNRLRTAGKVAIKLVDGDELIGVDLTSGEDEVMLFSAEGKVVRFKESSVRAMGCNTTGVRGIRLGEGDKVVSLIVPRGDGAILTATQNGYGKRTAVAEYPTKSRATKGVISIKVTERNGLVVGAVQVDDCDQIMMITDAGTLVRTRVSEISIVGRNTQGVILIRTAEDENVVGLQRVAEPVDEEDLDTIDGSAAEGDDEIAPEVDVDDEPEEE
Regarding `CCCNC(=O)Nc1cc(-c2nc(C(F)(F)F)cs2)c(-c2cc(-c3nnc(C)o3)cnc2OCCN2CCCC2)cn1` [Example 168], the inhibition at 1 µM is 69%.

Turning to `CCCNC(=O)Nc1cc(-c2nc(C(F)(F)F)cs2)c(-c2cc(-c3nnc(C)o3)cnc2OC2CCOCC2)cn1` [Example 169, 1-(5′-(5-Methyl-1,3,4-oxadiazol-2-yl)-2′-(tetrahydro-2H-pyran-4-yloxy)-4-(4-(trifluoromethyl)thiazol-2-yl)-3,3′-bipyridin-6-yl)-3-propylurea], the inhibition at 1 µM amounted to 96%. The value for `CCCNC(=O)Nc1cc(-c2nc(C(F)(F)F)cs2)c(-c2cc(-c3n[nH]c(=O)o3)cnc2OCCN2CCCC2)cn1` [Example 171] was 106%; that for `CCCNC(=O)Nc1cc(-c2nc(C(F)(F)F)cs2)c(-c2cncc(-c3nnc(C)o3)c2)cn1` [Example 173, 1-(5′-(5-methyl-1,3,4-oxadiazol-2-yl)-4-(4-(trifluoromethyl)thiazol-2-yl)-3,3′-bipyridin-6-yl)-3-propylurea] was 95%. For `CCCNC(=O)Nc1cc(-c2nc(C(F)(F)F)cs2)c(-c2ccnc(-c3nnc(O)o3)c2)cn1` [Example 175, 1-(2′-(5-hydroxy-1,3,4-oxadiazol-2-yl)-4-(4-(trifluoromethyl)thiazol-2-yl)-3,4′-bipyridin-6-yl)-3-propylurea], the inhibition at 1 µM turned out to be 93%.

With `CCNC(=O)Nc1cc(-c2nc(C(F)(F)F)cs2)c(-c2cncc(-c3nn(C(=O)N4CCOCC4)c(=O)o3)c2)cn1` [Example 176], the inhibition at 1 µM came out at 98%. `CCNC(=O)Nc1cc(-c2nc(C(F)(F)F)cs2)c(-c2cncc(-c3nn(C(=O)N4CCCCC4)c(=O)o3)c2)cn1` [Example 177]: the inhibition at 1 µM was 86%. To `CCNC(=O)Nc1cc(-c2nc(C(F)(F)F)cs2)c(-c2cncc(-c3nnc(N4CC[C@@H](O)C4)o3)c2)cn1` [Example 178] belongs 97%. Regarding `CCNC(=O)Nc1cc(-c2nc(C(F)(F)F)cs2)c(-c2cncc(-c3nnc(N4CC[C@H](O)C4)o3)c2)cn1` [Example 179], the inhibition at 1 µM was 101%. `CCNC(=O)Nc1cc(-c2nc(C(F)(F)F)cs2)c(-c2cncc(-c3nnc(N4CCC(O)CC4)o3)c2)cn1` [Example 180]: the inhibition at 1 µM was 96%. Regarding `CCNC(=O)Nc1cc(-c2nc(C(F)(F)F)cs2)c(-c2cncc(-c3nnc(N4CCCC(O)C4)o3)c2)cn1` (stereo not drawn) [Example 181], the inhibition at 1 µM was 97%. `CCNC(=O)Nc1cc(-c2nc(C(F)(F)F)cs2)c(-c2cncc(-c3nnc(N4CC(O)C4)o3)c2)cn1` [Example 182]: the inhibition at 1 µM was 99%. Take `CCNC(=O)Nc1cc(-c2nc(C(F)(F)F)cs2)c(-c2cncc(-c3nnc([C@@H](N)C(C)C)o3)c2)cn1` [Example 183]: the inhibition at 1 µM stood at 96%.

`CCNC(=O)Nc1cc(-c2nc(-c3cnn(C)c3)cs2)c(-c2cncc(S(N)(=O)=O)c2)cn1` [Example 185]: the inhibition at 1 µM was found to be 99%.

In the case of `CCNC(=O)Nc1cc(-c2nc(C(F)(F)F)cs2)c(-c2cc(-c3n[nH]c(=O)o3)cnc2OCCN2CCCC2)cn1` [Example 186], the inhibition at 1 µM stood at 110%. Regarding `CCNC(=O)Nc1cc(-c2nc(C(F)(F)F)cs2)c(-c2cc(-c3n[nH]c(=O)o3)cnc2OC2CCOCC2)cn1` [Example 187], the inhibition at 1 µM stood at 100%. Consider `CCNC(=O)Nc1cc(-c2nc(C(F)(F)F)cs2)c(-c2nc(-c3n[nH]c(=O)o3)cs2)cn1` [Example 188], for which the inhibition at 1 µM amounted to 97%. On to `CCNC(=O)Nc1cc(-c2nc(C(F)(F)F)cs2)c(-c2cnc(OC)c(-c3n[nH]c(=O)o3)c2)cn1` [Example 189], for which the inhibition at 1 µM turned out to be 103%. The value for `CCNC(=O)Nc1cc(-c2nc(C(F)(F)F)cs2)c(-c2cnc(-c3n[nH]c(=O)o3)cn2)cn1` [Example 190] was 100%. To `CCNC(=O)Nc1cc(-c2nc(C(F)(F)F)cs2)c(-c2ccc(-c3n[nH]c(=O)o3)nn2)cn1` [Example 191] belongs 99%; to `CCNC(=O)Nc1cc(-c2nnc(-c3ccccc3)o2)c(-c2ccnc(-c3n[nH]c(=O)o3)c2)cn1` [Example 192], 101%. As to `CCNC(=O)Nc1cc(-c2nnc(-c3ccccc3)o2)c(-c2nc(-c3n[nH]c(=O)o3)cs2)cn1` [Example 193], the inhibition at 1 µM was found to be 89%.

As to `CCNC(=O)Nc1cc(-c2nnc(-c3ccccc3)o2)c(-c2ncc(-c3n[nH]c(=O)o3)s2)cn1` [Example 194], the inhibition at 1 µM was found to be 101%. Take `CCNC(=O)Nc1cc(-c2nnc(-c3ccccc3)o2)c(-c2cnc(-c3n[nH]c(=O)o3)cn2)cn1` [Example 195]: the inhibition at 1 µM is 98%. For the compound `CCNC(=O)Nc1cc(-c2nnc(-c3ccccc3)o2)c(-c2cncc(-c3n[nH]c(=O)o3)c2)cn1` [Example 196], the inhibition at 1 µM was 118%. On to `CCNC(=O)Nc1cc(-c2nnc(-c3ccccc3)o2)c(-c2cnc(OC)c(-c3n[nH]c(=O)o3)c2)cn1` [Example 197], for which the inhibition at 1 µM was found to be 106%. As for `CCNC(=O)Nc1cc(-c2nnc(-c3ccc(F)cc3)o2)c(-c2cncc(-c3n[nH]c(=O)o3)c2)cn1` [Example 198], the inhibition at 1 µM was 104%.

As for `CCNC(=O)Nc1cc(-c2nc(-c3ccccc3)cs2)c(-c2nc(-c3ncccn3)c(-c3n[nH]c(=O)o3)s2)cn1` [Example 199], the inhibition at 1 µM came out at 94%. To `CCNC(=O)Nc1cc(-c2nc(-c3ccccc3)cs2)c(-c2nc(-c3ncnn3C)c(-c3n[nH]c(=O)o3)s2)cn1` [Example 200] belongs 93%; to `CCNC(=O)Nc1cc(-c2nc(-c3ccccn3)cs2)c(-c2nc(-c3ncccn3)c(-c3n[nH]c(=O)o3)s2)cn1` [Example 201], 107%; to `CCNC(=O)Nc1cc(-c2nc(-c3cccc(OC)n3)cs2)c(-c2cncc(-c3n[nH]c(=O)o3)c2)cn1` [Example 202], 43%. Consider `CCNC(=O)Nc1cc(-c2nc(-c3ccc(OC)nc3)cs2)c(-c2cncc(-c3n[nH]c(=O)o3)c2)cn1` [Example 203], for which the inhibition at 1 µM was 104%.

Regarding `CCNC(=O)Nc1cc(-c2nc(-c3cccnc3F)cs2)c(-c2cncc(-c3n[nH]c(=O)o3)c2)cn1` [Example 204], the inhibition at 1 µM was 101%. For `CCNC(=O)Nc1cc(-c2nc(-c3cnn(C)c3)cs2)c(-c2cnc(OC)c(-c3n[nH]c(=O)o3)c2)cn1` [Example 205], the inhibition at 1 µM is 100%. For `CCNC(=O)Nc1cc(-c2nc(-c3cnn(C)c3)cs2)c(-c2cncc(-c3n[nH]c(=O)o3)n2)cn1` [Example 206], the inhibition at 1 µM turned out to be 99%.

Take `CCNC(=O)Nc1cc(-c2nc(-c3cccnc3OCCOC)cs2)c(-c2cnc(OC)c(-c3n[nH]c(=O)o3)c2)cn1` [Example 207]: the inhibition at 1 µM stood at 101%. As to `CCNC(=O)Nc1cc(-c2nc(-c3cccnc3OCCOC)cs2)c(-c2cncc(-c3n[nH]c(=O)o3)c2)cn1` [Example 208], the inhibition at 1 µM worked out at 100%. To `CCNC(=O)Nc1cc(-c2nc(C3CCCC3)cs2)c(-c2cncc(-c3n[nH]c(=O)o3)c2)cn1` [Example 209] belongs 95%; to `CCNC(=O)Nc1cc(-c2nc(C3CC3)cs2)c(-c2cncc(-c3n[nH]c(=O)o3)c2)cn1` [Example 210], 65%; to `CCNC(=O)Nc1cc(-c2nc(C3CCCCC3)cs2)c(-c2cncc(-c3n[nH]c(=O)o3)c2)cn1` [Example 211], 109%. The value for `CCNC(=O)Nc1cc(-c2nc(C3CCOC(C)(C)C3)cs2)c(-c2cncc(-c3n[nH]c(=O)o3)c2)cn1` (stereo not drawn) [Example 212] was 97%; that for `CCNC(=O)Nc1cc(-c2nc(C3CCN(C(=O)n4ccnc4)CC3)cs2)c(-c2cncc(-c3n[nH]c(=O)o3)c2)cn1` [Example 213] was 95%.

Take `CCNC(=O)Nc1cc(-c2nc(C(F)(F)F)cs2)c(-c2cc(-c3n[nH]c(=O)o3)cnc2OC2CCCCC2)cn1` [Example 214]: the inhibition at 1 µM is 109%. As for `CCNC(=O)Nc1cc(-c2nc(C(F)(F)F)cs2)c(-c2cc(-c3n[nH]c(=O)o3)cnc2OC2CCN(C)CC2)cn1` [Example 215], the inhibition at 1 µM was 96%. The value for `CCNC(=O)Nc1cc(-c2nc(C(F)(F)F)cs2)c(-c2cc(-c3n[nH]c(=O)o3)cnc2OCC2CC2)cn1` [Example 216] was 96%. As to `CCNC(=O)Nc1cc(-c2nc(C(F)(F)F)cs2)c(-c2cc(-c3n[nH]c(=O)o3)cnc2OC2CCCC2)cn1` [Example 217], the inhibition at 1 µM turned out to be 95%. Regarding `CCNC(=O)Nc1cc(-c2nc(C(F)(F)F)cs2)c(-c2cc(-c3n[nH]c(=O)o3)cnc2OC2CC(C)(C)N(C)C(C)(C)C2)cn1` [Example 218], the inhibition at 1 µM turned out to be 99%. With `CCNC(=O)Nc1cc(-c2nc(C(F)(F)F)cs2)c(-c2cc(-c3n[nH]c(=O)o3)cnc2OC2CCN(C(C)C)CC2)cn1` [Example 219], the inhibition at 1 µM was found to be 97%. For the compound `CCNC(=O)Nc1cc(-c2nc(C(F)(F)F)cs2)c(-c2cc(-c3n[nH]c(=O)o3)cnc2OCCCC2CCCC2)cn1` [Example 220], the inhibition at 1 µM was found to be 91%. To `CCNC(=O)Nc1cc(-c2nc(-c3cnn(C)c3)cs2)c(-c2cc(-c3n[nH]c(=O)o3)cnc2OCC2CC2)cn1` [Example 221] belongs 99%; to `CCNC(=O)Nc1cc(-c2nc(-c3cnn(C)c3)cs2)c(-c2cc(-c3n[nH]c(=O)o3)cnc2OC2CCOCC2)cn1` [Example 222], 97%; to `CCNC(=O)Nc1cc(-c2nc(C(F)(F)F)cs2)c(-c2cc(-c3n[nH]c(=O)o3)cnc2OCC2CCN(C)CC2)cn1` [Example 223], 95%.

On to `CCNC(=O)Nc1cc(-c2nc(C(F)(F)F)cs2)c(-c2cc(-c3n[nH]c(=O)o3)cnc2OCCC2CCCN2C)cn1` (stereo not drawn) [Example 224], for which the inhibition at 1 µM came out at 94%. With `CCNC(=O)Nc1cc(-c2nc(C(F)(F)F)cs2)c(-c2cc(-c3n[nH]c(=O)o3)cnc2OC[C@@H](C)O)cn1` [Example 225], the inhibition at 1 µM was determined as 117%.

One may read the inhibition as the change of the read-out against control, counted positive when it falls.
